{
  "source": "patent US20100227841A1",
  "about": "“Patient populations and treatment methods” (Harbor BioSciencs, Inc., priority 2008, published 2010)",
  "key": {"[1]": {"test_system": "toll-like receptor 4 (TLR4) signaling", "assay": "LPS-induced proinflammatory signaling in macrophages (Western blot, qNPA array)", "type": "cell-based, mouse", "protocol": "Methods. LPS and recombinant TNFα were obtained from Sigma. Anti-SREBP2 was obtained from Abcam (Cambridge, Mass.). Other primary antibodies were purchased from Cell Signaling Technology (Danvers, Mass.) unless otherwise indicated. Murine primary macrophages were elicited by intraperitoneal injection of thioglycollate (3 mL/mouse) in C57BL/6J mice. Macrophages were obtained from intraperitoneal lavage and washed twice. Cells were cultured in RPMI supplemented with 10% fetal bovine serum (FBS) for 3 days and then starved in RPMI supplemented with 0.5% FBS for overnight before the treatment. RAW 264.7 cells and 3T3-L1 cells were cultured essentially as described elsewhere (T. Yoshizaki, et al. Molecular and Cellular Biology, 29:1363-1374, 2009).\nGene expression analyses used total RNA extracted from tissue with Purelink total RNA purification system (Invitrogen) following the manufacturer's protocol. Total RNA (2 μg) was reverse-transcribed using iScript cDNA Synthesis Kit (Bio-Rad Laboratories, Hercules, Calif.). Primer sequences used in the PCR reactions were chosen based on the sequences available in GenBank. Primer sequences are available upon request. PCR was carried out using iTaq SYBR Green supermix (Bio-Rad Laboratories, Hercules, Calif.) on an MJ Research Chromo4 Real Time PCR system (Bio-Rad Laboratories BV, Hercules, Calif.). […] For Quantitative Nuclease Protection Assay (qNPA), cells were lysed in lysis buffer after various treatments. The qNPA ArrayPlate assays were performed by High Throughput Genomics, Inc.\nFor Western blots, cells were serum starved and pretreated with DMSO or 17α-ethynylandrost-5-ene-3β,7β,17β-triol (100 nM) for overnight before LPS (100 ng/ml) or TNFα (10 ng/ml) stimulation for the indicated times, and then were lysed in radioimmunoprecipitation buffer containing protease inhibitor cocktail (Roche) and phosphatase inhibitor cocktail (Sigma). Total cell lysates were separated by 10% SDS-PAGE. The blots were incubated first with blocking buffer (Tris-buffered saline containing 0.05% Tween 20 and 5.5% nonfat milk) followed by primary antibodies in blocking buffer or Tris-buffered saline containing 2% BSA. The bound antibodies were detected by horseradish peroxidase-conjugated secondary antibodies (1:4000, v/v) in blocking buffer and visualized by enhanced chemiluminescence."}, "type 2 diabetes patients": {"test_system": "type 2 diabetes patients", "assay": "Phase 2 monotherapy protocol in treatment naive type 2 diabetes patients", "type": "in vivo, human", "protocol": "A phase 2 clinical treatment protocol was conducted in type 2 diabetes patients using a monotherapy consisting of 17α-ethynylandrost-5-ene-3β,7β,17β-triol. The patients had not been treated with another antidiabetic agent or any insulin sensitizer such as metformin for at least 90 days before the start of dosing. […] The patients (n=51) received 10 mg/day of 17α-ethynylandrost-5-ene-3β,7β,17β-triol (5 mg twice per day) for 84 days and were then followed until day 112. Effects of treatment were examined in subsets of patients having differing BMI values."}, "[2]": {"settings": "pretreatment 100 nM overnight, LPS 100 ng/ml, p<0.05"}},
  "data": [
    {"smiles": "C#C[C@]1(O)CC[C@H]2[C@@H]3[C@@H](O)C=C4C[C@@H](O)CC[C@]4(C)[C@H]3CC[C@@]21C", "note": "[17α-ethynylandrost-5-ene-3β,7β,17β-triol]", "values": [
      {"measurement": "LPS-induced activation of ERK", "setting": "[1]; [2]", "result": "partially, but significantly, blocked"},
      {"measurement": "LPS-induced activation of IKK", "setting": "[1]; [2]", "result": "partially, but significantly, blocked"},
      {"measurement": "LPS-induced activation of JNK", "setting": "[1]; [2]", "result": "partially, but significantly, blocked"},
      {"measurement": "LPS-induced activation of p38", "setting": "[1]; [2]", "result": "partially, but significantly, blocked"},
      {"measurement": "IκB phosphorylation and degradation", "setting": "[1]; pretreatment 100 nM, LPS", "result": "not influenced"},
      {"measurement": "NFκB phosphorylation", "setting": "[1]; pretreatment 100 nM, LPS", "result": "reduced"},
      {"measurement": "LPS-induced transcription of Cxcl1", "setting": "[1]; qNPA array", "result": "significantly reduced"},
      {"measurement": "LPS-induced transcription of Cxcl10", "setting": "[1]; qNPA array", "result": "significantly reduced"},
      {"measurement": "LPS-induced transcription of IL-1β", "setting": "[1]; qNPA array", "result": "significantly reduced"},
      {"measurement": "LPS-induced transcription of IL-6", "setting": "[1]; qNPA array", "result": "significantly reduced"},
      {"measurement": "LPS-induced transcription of IL-12", "setting": "[1]; qNPA array", "result": "significantly reduced"},
      {"measurement": "LPS-induced transcription of Nos2", "setting": "[1]; qNPA array", "result": "significantly reduced"},
      {"measurement": "LPS-induced transcription of TNFα", "setting": "[1]; qNPA array", "result": "significantly reduced"},
      {"measurement": "C-reactive protein", "setting": "type 2 diabetes patients; BMI greater than 31.3 kg/m^2, day 57, p=0.053", "result": "trend to decreased"},
      {"measurement": "patients with decreased HbA1c to <7%", "setting": "type 2 diabetes patients; BMI greater than 31.3 kg/m^2, day 84, placebo 0/14", "result": "2/9"},
      {"measurement": "decreases in serum MCP-1", "setting": "type 2 diabetes patients; BMI greater than 31.3 kg/m^2, days 29, 57 and 84", "result": "> 600", "unit": "pg/mL"},
      {"measurement": "observed effects in lower BMI subset", "setting": "type 2 diabetes patients; patients having a BMI of less than about 31", "result": "less pronounced"},
      {"measurement": "HbA1c decrease", "setting": "type 2 diabetes patients; patients with BMI greater than 31.3 kg/m^2 (n=22), 10 mg/day for 84 days, day 112, p=0.041", "result": 1.1, "unit": "%"}
    ]}
  ]
}
